Assay results taken from US20070293542A1, “Selective Cox-2 Inhibitors” (priority 2003, published 2007).

Experiments:
ovine COX-1 = biological target: T1, ovine COX-1 (Ovis aries, UniProt P05979); experiment: COX-1 purified enzyme assay (Cayman Chemical kit, PGH2 production detected as PGF2α by EIA); assay type: biochemical; conditions: purified ovine COX-1; read-out: IC50 for inhibition of COX-1
T1 construct: purchased Cayman Chemical (Ann Arbor, Mich.)
T1 sequence (P05979 25-600): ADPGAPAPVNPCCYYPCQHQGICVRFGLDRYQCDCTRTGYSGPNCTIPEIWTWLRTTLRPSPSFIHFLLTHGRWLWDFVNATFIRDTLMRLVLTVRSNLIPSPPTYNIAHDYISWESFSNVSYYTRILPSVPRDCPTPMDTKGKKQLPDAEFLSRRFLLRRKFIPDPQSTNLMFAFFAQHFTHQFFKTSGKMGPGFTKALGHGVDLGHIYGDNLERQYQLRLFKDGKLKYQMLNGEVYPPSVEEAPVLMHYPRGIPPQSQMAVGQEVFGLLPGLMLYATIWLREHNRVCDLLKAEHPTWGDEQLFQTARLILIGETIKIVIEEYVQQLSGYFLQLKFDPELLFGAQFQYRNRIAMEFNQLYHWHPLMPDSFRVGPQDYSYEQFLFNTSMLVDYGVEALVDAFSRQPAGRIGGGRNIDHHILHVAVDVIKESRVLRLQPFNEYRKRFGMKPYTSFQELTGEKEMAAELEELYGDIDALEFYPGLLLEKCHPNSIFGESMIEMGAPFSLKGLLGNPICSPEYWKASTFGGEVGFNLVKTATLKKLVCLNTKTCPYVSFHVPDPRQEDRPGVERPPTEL
Excerpt: (§1) Because COX-1 and COX-2 convert arachidonic acid to prostaglandin H2 (PGH2), one can assess COX inhibitory activity of a test compound by measuring the effect of the compound on PGH2 production in the presence of purified COX-1 enzyme and, in a separate assay, in the presence of purified COX-2 enzyme. In this assay, the production of PGH2 can be measured by reducing PGH2 to prostaglandin F2α (PGF2α) with SnCl2 and then detecting PGF2α by enzyme immunoassay (EIA) using a suitable antibody.
Using the methods described above, the inhibition of human COX-2 and ovine COX-1 by desbenzoylindomethacin was measured.

prostaglandin synthesis = conditions: reported by Shen and Winter 1977; cited from earlier work
human COX-2 = biological target: T2, human COX-2 (Homo sapiens, UniProt P35354); experiment: COX-2 purified enzyme assay (Cayman Chemical kit, PGH2 production detected as PGF2α by EIA); assay type: biochemical; conditions: for COX-2 selectivity (IC50 for COX-1/IC50 for COX-2): ovine COX-1 vs human COX-2, purified enzymes; for IC50: purified human COX-2, read-out: IC50 for inhibition of COX-2
T2 construct: purchased Cayman Chemical (Ann Arbor, Mich.)
T2 sequence (P35354 18-604): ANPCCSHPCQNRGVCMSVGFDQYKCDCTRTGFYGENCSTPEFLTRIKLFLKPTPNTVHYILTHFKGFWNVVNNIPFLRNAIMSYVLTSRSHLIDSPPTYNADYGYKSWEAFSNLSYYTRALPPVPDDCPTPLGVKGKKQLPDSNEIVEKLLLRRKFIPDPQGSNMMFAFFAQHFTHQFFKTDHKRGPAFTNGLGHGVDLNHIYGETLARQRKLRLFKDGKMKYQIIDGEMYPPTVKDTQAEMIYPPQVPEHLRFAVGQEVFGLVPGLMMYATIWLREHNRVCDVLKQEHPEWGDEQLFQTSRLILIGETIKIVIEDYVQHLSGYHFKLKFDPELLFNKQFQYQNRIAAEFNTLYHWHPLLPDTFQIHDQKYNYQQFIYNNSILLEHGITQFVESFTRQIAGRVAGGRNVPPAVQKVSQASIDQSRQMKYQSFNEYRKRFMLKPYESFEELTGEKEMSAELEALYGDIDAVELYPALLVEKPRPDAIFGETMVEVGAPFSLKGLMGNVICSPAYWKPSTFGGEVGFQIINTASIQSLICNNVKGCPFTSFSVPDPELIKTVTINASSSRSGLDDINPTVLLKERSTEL
Excerpt: as §1, with “. Because” for “Because”
. Using the methods described above, the inhibition of human COX-2 and ovine COX-1 by desbenzoylindomethacin was measured. […]

SMILES | IC50 (ovine COX-1) | ability to inhibit prostaglandin synthesis (prostaglandin synthesis) | COX-2 selectivity (IC50 for COX-1/IC50 for COX-2) (human COX-2) | IC50 (human COX-2) | potency reduced relative to indomethacin (human COX-2; COX-1 and COX-2 purified enzyme assays) | melting point
Cc1c(CC(=O)O)c2cc(O)ccc2n1C(=O)c1ccc(Cl)cc1 [desmethylindomethacin, 1-(p-Chlorobenzoyl)-5-hydroxy-2-methylindole-3-acetic acid] | 15 µM | some ability to inhibit prostaglandin synthesis | 50-150 | 0.1 to 0.3 µM |  | 
COc1ccc2[nH]c(C)c(CC(=O)O)c2c1 [desbenzoylindomethacin] | 20 µM |  | 1.6 | 12 µM | ~100 fold | 
Cc1c(CC(=O)O)c2cc(O)c(F)cc2n1C(=O)c1ccccc1 [compound 12, (1-benzoyl-6-fluoro-5-hydroxy-2-methyl-1H-indol-3-yl)acetic acid] |  |  |  |  |  | 159 to 161 °C
Cc1c(CC(=O)O)c2cc(O)ccc2n1C(=O)c1ccccc1 [compound 5, (1-benzoyl-5-hydroxy-2-methyl-1H-indol-3-yl)acetic acid] |  |  |  |  |  | 186 to 188 °C
